Here are results for 2 compounds from US20240336577A1, “PYRAZINE COMPOUND, AND METHOD OF PREPARATION AND USE THEREOF” (SHENZHEN OLIVE BIOPHARMACEUTICALS CO., LTD, priority 2020, published 2024).

One test has as its system SH—SY5Y cells. The test can be described thus: Neuroprotection against oxygen glucose deprivation (OGD), MTT assay. It is filed as cell-based. Particulars: 4 h OGD, FIG. 1. The procedure:
Neuroprotective effect of tetramethylpyrazine (TMP) and derivatives thereof was evaluated by MTT assay. Cells were incubated, log-phase cells were collected, a concentration of a cell suspension was adjusted, an MTT-containing medium was added after chemical treatment and 4 h of incubation with OGD, incubation was conducted for 4 h, the medium in the wells was carefully removed, and 150 μl of dimethyl sulfoxide (DMSO) was added to each well, shaken at a low speed for 10 min on a shaker to fully dissolve crystals, and an absorbance value of each well was measured at an OD (absorbance) value of 490 nm of an enzyme-linked immunosorbent assay instrument (at the same time, a zero adjustment well (medium, MTT, DMSO), a control well (cells, a drug dissolution medium with the same concentration, medium, MTT, DMSO)). Data were presented as mean±SEM; n=8 per group. One-way ANOVA and multiple range test were adopted to show differences between the two groups. a, p<0.001 vs. control group; b, p<0.05 vs. OGD group; c, p<0.001 vs. OGD group.
Background: Formazan colour is commonly taken as a measure of viable cells.

The test system of test [1] is SH—SY5Y neuroblastoma cells. The test can be described thus: LPS-induced inflammatory factors and oxidative stress-related proteins, ELISA kit. In kind it is cell-based. Particulars: 1 μg/mL LPS 24 h, mean±SEM, n=8; for TNF-alpha: differentiated SH-SY5Y, supernatant. As for the experimental part:
The SH—SY5Y cells were recovered and cultured, and the cells in the logarithmic growth phase were taken. After 24 h of incubation, SH—SY5Y neuroblastoma cells were treated with 1 μM all-trans retinoic acid to induce differentiation, and then inoculated into a 6-well culture dish for 24 h of incubation. The medium was treated with chemicals feed at 0.2 μM (L) or 1 μM (H) and 1 μg/mL LPS for 24 h, a supernatant medium was aspirated, and changes of inflammatory factors and oxidative stress-related proteins were measured by an ELISA kit. Data were presented as mean±SEM; n=8 per group. One-way ANOVA and multiple range test were adopted to show differences between the two groups. a, p<0.05 vs. LPS group; b, p<0.01 vs. LPS group; c, p<0.001 vs. LPS group.
For orientation: An ELISA detects its analyte on a solid surface through an enzyme-linked reagent.

As for `Cc1nc(C)c(COC(=O)OCCc2ccc(O)cc2)nc1C` [OLB-1], the “death of SH—SY5Y cells caused by OGD” value in the test on SH—SY5Y cells is recorded as “significantly reduce the death”. In addition, in test [1] (compound 0.2 μM (L)), the GSH-Px is 8.39 ± 0.69(c) umol/mg, the IL1 is listed as 10.94 ± 1.48(a) pg/ml, the IL6 was 11.60 ± 1.39(a) pg/ml and the MDA is listed as 16.15 ± 1.26(c) nmol/mg. In test [1] (compound 0.2 μM (L)), the SOD is 12.58 ± 0.72(b) nU/ml and the TNF-alpha is given as 9.64 ± 1.56(a) pg/ml. Also, in test [1] (compound 1 μM (H)), the GSH-Px was 13.71 ± 0.84(c) umol/mg, the IL1 is on record as 8.46 ± 1.33(b) pg/ml, the IL6 is recorded as 7.97 ± 1.61(c) pg/ml and the MDA is 10.51 ± 0.74(c) nmol/mg. Besides, in test [1] (compound 1 μM (H)), the SOD is 16.76 ± 0.38(c) nU/ml and the TNF-alpha is recorded as 6.78 ± 1.67(c) pg/ml.

As for `Cc1nc(C)c(CNC(=O)OCCc2ccc(O)cc2)nc1C` [OLB-2], the “death of SH—SY5Y cells caused by OGD” value in the test on SH—SY5Y cells is “significantly reduce the death”. In test [1] (compound 0.2 μM (L)), the GSH-Px was 7.93 ± 1.05(b) umol/mg, the IL1 is on record as 10.34 ± 1.89(a) pg/ml, the IL6 is recorded as 11.05 ± 1.87(a) pg/ml and the MDA was 15.75 ± 0.95(c) nmol/mg. Also, in test [1] (compound 0.2 μM (L)), the SOD is 12.13 ± 0.65(b) nU/ml and the TNF-alpha is 9.92 ± 1.44(b) pg/ml. Also, in test [1] (compound 1 μM (H)), the GSH-Px is 13.40 ± 1.24(c) umol/mg, the IL1 is 7.37 ± 1.58(c) pg/ml, the IL6 is listed as 8.19 ± 1.24(c) pg/ml and the MDA is given as 9.37 ± 0.73(c) nmol/mg. Also, in test [1] (compound 1 μM (H)), the SOD is 15.16 ± 1.52(c) nU/ml and the TNF-alpha is reported as 6.99 ± 1.31(c) pg/ml.
